Data: paper PMC11189555, “Aryl amino acetamides prevent Plasmodium falciparum ring development via targeting the lipid-transfer protein PfSTART1” (Nature Communications, 2024)
Where two headings read alike, the source gives them in different places.

Key:
Format in all cases: cell-based, Plasmodium falciparum
[1] = test system: PopE-F10 M-833 resistant clone (PfSTART1 N330K); assay: Growth inhibition assay (72 h, LDH activity); details: for (av-uRBC) / (DMSO-uRBC) x100: PopE-F10, 20000 nM
Procedure, shortened: (§1)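 Synchronised ring-stage 3D7-derived clones (0.3-0.6% parasitemia, 2% haematocrit) grown 72 h in compound serial dilutions, some with 0, 0.25 or 2.5 mM glucosamine. Growth read as LDH activity after freeze-thaw (Malstat/NBT, A650), normalised to DMSO and uninfected RBC; EC50 from variable-slope log(inhibitor) fit.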

[2] = test system: female gametes from mature stage V gametocytes; assay: Dual gamete formation assay: female gamete formation (Pfs25 expression)
Description: The compounds were tested in the P. falciparum Dual Gamete Formation Assay (PfDGFA)[84], fully described in the Supplementary Information. […]
Dual gamete formation assays. The compounds were tested in the P. falciparum Dual Gamete Formation Assay (PfDGFA) 13. Briefly, mature stage V gametocytes were exposed to compounds for 48 h at 37°C in 384 well plates in gametocyte culture medium (RPMI 1640 supplemented with 25 mM HEPES, 50 μg/mL hypoxanthine, 4.8 g/L NaHCO3, 2 mM L-glutamine, 5% pooled type AB serum, 0.5% Albumax II (Gibco)) under a 1% O2, 3% CO2, 96% N2 environment. Gametogenesis was then triggered by the addition of 10 μL ookinete medium (gametocyte culture medium supplemented with 100 μM xanthurenic acid and 0.27 µg/mL Cy3-labelled anti-Pfs25 antibody) to each well at room temperature. Plates were then cooled on a metal block at 4°C for four min to ensure even cooling and then stabilised for a further 4 min at 28°C. At 20 min post-induction, male gametogenesis was recorded in each well by automated brightfield microscopy using a x4 objective lens and 1.5x magnifier (x6 effective magnification). Afterward, plates were incubated in the dark at room temperature for 24 h and then female gametogenesis recorded in each well by automated fluorescence microscopy (anti-Pfs25-positive cells). All experiments were performed in quadruplicate with DMSO and cabamiquine (DDD107498)17 as negative and positive controls respectively. All data was evaluated in comparison to the positive and negative controls to calculate percentage inhibition of male and female gametocytes, and dose response analysis and IC50 calculation performed using GraphPad Prism. […]

[3] = test system: PopD-D7 M-833 resistant clone (PfSTART1 N309K); assay: Growth inhibition assay (72 h, LDH activity); details: for inhibition at 0.0390625 µM / inhibition at 0.078125 µM / inhibition at 0.15625 µM / inhibition at 0.3125 µM / inhibition at 0.625 µM / inhibition at 1.25 µM / inhibition at 2.5 µM / inhibition at 5 µM / inhibition at 10 µM / EC50: Plasmodium falciparum; for (av-uRBC) / (DMSO-uRBC) x100: PopD-D7
Procedure, shortened: as §1

[4] = M-833 0.0390625 uM, PopD-D7 replicate 1
[5] = M-833 0.0390625 uM, PopD-D7 replicate 3
[6] = M-833 0.078125 uM, PopD-D7 replicate 1
[7] = M-833 0.078125 uM, PopD-D7 replicate 3
[8] = M-833 0.15625 uM, PopD-D7 replicate 1
[9] = M-833 0.15625 uM, PopD-D7 replicate 3
[10] = M-833 0.3125 uM, PopD-D7 replicate 1
[11] = M-833 0.3125 uM, PopD-D7 replicate 3
[12] = M-833 0.625 uM, PopD-D7 replicate 1
[13] = M-833 0.625 uM, PopD-D7 replicate 3
[14] = M-833 1.25 uM, PopD-D7 replicate 1
[15] = M-833 1.25 uM, PopD-D7 replicate 3
[16] = M-833 2.5 uM, PopD-D7 replicate 1
[17] = M-833 2.5 uM, PopD-D7 replicate 3
[18] = M-833 5 uM, PopD-D7 replicate 1
[19] = M-833 5 uM, PopD-D7 replicate 3
[20] = M-833 10 uM, PopD-D7 replicate 1
[21] = M-833 10 uM, PopD-D7 replicate 3

SMILES: Cc1cc(Cl)c(S(=O)(=O)N2CCCC2)cc1OCC(=O)NC1CCCCC1 [M-833]
- (av-uRBC) / (DMSO-uRBC) x100 ([1]; biological replicate 2): 44.7285
- (av-uRBC) / (DMSO-uRBC) x100 ([1]; biological replicate 3): 18.154
- Fold change compared to 3D7 ([1]; Supplementary Table 1, EC50 on PopE-F10 vs 3D7): > 128 fold
- EC50 ([1]; Supplementary Table 1, PopE-F10 (N330K), 72 h): > 10 µM
- inhibition of female gamete formation ([2]; 1 µM, 48 h treatment of mature gametocytes): no inhibition
- Dual Gamete Formation Assay: Female at 1 µM, Mean ([2]; mean of 4 plates): -1.423
- Normalised to DMSO [3, 4]: 102.734
- Normalised to DMSO [3, 5]: 100.987
- Normalised to DMSO [3, 6]: 102.828
- Normalised to DMSO [3, 7]: 101.481
- Normalised to DMSO [3, 8]: 103.677
- Normalised to DMSO [3, 9]: 99.9013
- Normalised to DMSO [3, 10]: 100.66
- Normalised to DMSO [3, 11]: 100.592
- Normalised to DMSO [3, 12]: 98.7744
- Normalised to DMSO [3, 13]: 98.815
- Normalised to DMSO [3, 14]: 99.0572
- Normalised to DMSO [3, 15]: 95.26
- Normalised to DMSO [3, 16]: 95.8517
- Normalised to DMSO [3, 17]: 89.6313
- Normalised to DMSO [3, 18]: 85.4808
- Normalised to DMSO [3, 19]: 79.5589
- Normalised to DMSO [3, 20]: 58.4224
- Normalised to DMSO [3, 21]: 50.0329
- inhibition at 0.0390625 µM [3, 4]: -2.73%
- inhibition at 0.0390625 µM [3, 5]: -0.987%
- inhibition at 0.078125 µM [3, 6]: -2.83%
- inhibition at 0.078125 µM [3, 7]: -1.48%
- inhibition at 0.15625 µM [3, 8]: -3.68%
- inhibition at 0.15625 µM [3, 9]: 0.0987%
- inhibition at 0.3125 µM [3, 10]: -0.66%
- inhibition at 0.3125 µM [3, 11]: -0.592%
- inhibition at 0.625 µM [3, 12]: 1.23%
- inhibition at 0.625 µM [3, 13]: 1.18%
- inhibition at 1.25 µM [3, 14]: 0.943%
- inhibition at 1.25 µM [3, 15]: 4.74%
- inhibition at 2.5 µM [3, 16]: 4.15%
- inhibition at 2.5 µM [3, 17]: 10.4%
- inhibition at 5 µM [3, 18]: 14.5%
- inhibition at 5 µM [3, 19]: 20.4%
- inhibition at 10 µM [3, 20]: 41.6%
- inhibition at 10 µM [3, 21]: 50%
- EC50 ([3]; read-out: EC50 (95% confidence interval)): 9.95 µM
- EC50 ([3]; Supplementary Table 1, PopD-D7 (N309K), 72 h, read-out: EC50): 4.88 µM
- (av-uRBC) / (DMSO-uRBC) x100 ([3]; conc. 3.04832 nM, Biological replicate 1 (2021-10-25)): 106.031
- (av-uRBC) / (DMSO-uRBC) x100 ([3]; conc. 3.04832 nM, Biological replicate 2 (2021-11-03)): 107.379
- (av-uRBC) / (DMSO-uRBC) x100 ([3]; conc. 3.04832 nM, Biological replicate 3 (2021-11-11)): 132.053
- (av-uRBC) / (DMSO-uRBC) x100 ([3]; conc. 9.14495 nM, Biological replicate 1 (2021-10-25)): 108.232
- (av-uRBC) / (DMSO-uRBC) x100 ([3]; conc. 9.14495 nM, Biological replicate 2 (2021-11-03)): 108.229
- (av-uRBC) / (DMSO-uRBC) x100 ([3]; conc. 9.14495 nM, Biological replicate 3 (2021-11-11)): 134.103
- (av-uRBC) / (DMSO-uRBC) x100 ([3]; conc. 27.4348 nM, Biological replicate 1 (2021-10-25)): 109.088
- (av-uRBC) / (DMSO-uRBC) x100 ([3]; conc. 27.4348 nM, Biological replicate 2 (2021-11-03)): 108.743
- (av-uRBC) / (DMSO-uRBC) x100 ([3]; conc. 27.4348 nM, Biological replicate 3 (2021-11-11)): 131.145
- (av-uRBC) / (DMSO-uRBC) x100 ([3]; conc. 82.3045 nM, Biological replicate 1 (2021-10-25)): 105.921
- (av-uRBC) / (DMSO-uRBC) x100 ([3]; conc. 82.3045 nM, Biological replicate 2 (2021-11-03)): 106.368
- (av-uRBC) / (DMSO-uRBC) x100 ([3]; conc. 82.3045 nM, Biological replicate 3 (2021-11-11)): 120.919
- (av-uRBC) / (DMSO-uRBC) x100 ([3]; conc. 246.914 nM, Biological replicate 1 (2021-10-25)): 104.521
- (av-uRBC) / (DMSO-uRBC) x100 ([3]; conc. 246.914 nM, Biological replicate 2 (2021-11-03)): 107.825
- (av-uRBC) / (DMSO-uRBC) x100 ([3]; conc. 246.914 nM, Biological replicate 3 (2021-11-11)): 115.806
- (av-uRBC) / (DMSO-uRBC) x100 ([3]; conc. 740.741 nM, Biological replicate 1 (2021-10-25)): 96.6483
- (av-uRBC) / (DMSO-uRBC) x100 ([3]; conc. 740.741 nM, Biological replicate 2 (2021-11-03)): 106.073
- (av-uRBC) / (DMSO-uRBC) x100 ([3]; conc. 740.741 nM, Biological replicate 3 (2021-11-11)): 111.809
- (av-uRBC) / (DMSO-uRBC) x100 ([3]; conc. 2222.22 nM, Biological replicate 1 (2021-10-25)): 83.9595
- (av-uRBC) / (DMSO-uRBC) x100 ([3]; conc. 2222.22 nM, Biological replicate 2 (2021-11-03)): 95.9821
- (av-uRBC) / (DMSO-uRBC) x100 ([3]; conc. 2222.22 nM, Biological replicate 3 (2021-11-11)): 68.0249
- (av-uRBC) / (DMSO-uRBC) x100 ([3]; conc. 6666.67 nM, Biological replicate 1 (2021-10-25)): 42.8085
- (av-uRBC) / (DMSO-uRBC) x100 ([3]; conc. 6666.67 nM, Biological replicate 2 (2021-11-03)): 58.8022
- (av-uRBC) / (DMSO-uRBC) x100 ([3]; conc. 6666.67 nM, Biological replicate 3 (2021-11-11)): 17.0257
- (av-uRBC) / (DMSO-uRBC) x100 ([3]; conc. 20000 nM, Biological replicate 1 (2021-10-25)): 9.309
- (av-uRBC) / (DMSO-uRBC) x100 ([3]; conc. 20000 nM, Biological replicate 2 (2021-11-03)): 11.2449
- (av-uRBC) / (DMSO-uRBC) x100 ([3]; conc. 20000 nM, Biological replicate 3 (2021-11-11)): 4.179
- Normalised to DMSO ([3]; PopD-D7 replicate 1, M-833 0.0390625 uM): 0.8625
- Normalised to DMSO ([3]; PopD-D7 replicate 1, M-833 0.078125 uM): -4.169
- Normalised to DMSO ([3]; PopD-D7 replicate 1, M-833 0.15625 uM): -1.581
- Normalised to DMSO ([3]; PopD-D7 replicate 1, M-833 0.3125 uM): -1.15
- Normalised to DMSO ([3]; PopD-D7 replicate 1, M-833 0.625 uM): -0.1437
- Normalised to DMSO ([3]; PopD-D7 replicate 1, M-833 1.25 uM): -3.594
- Normalised to DMSO ([3]; PopD-D7 replicate 1, M-833 2.5 uM): 7.619
- Normalised to DMSO ([3]; PopD-D7 replicate 1, M-833 5 uM): 28.7494
- Fold change compared to 3D7 ([3]; Supplementary Table 1, EC50 on PopD-D7 vs 3D7): 31 fold
